Laboratory results: ChEMBL document CHEMBL6127113, “Penicamins A-L, Polyoxygenated Diterpenes from Penicillium camemberti JSB-7212” (J Nat Prod, 2024)
The source made the active and inactive calls. The calls are words filed in the database; no cut-off is given here.

Legend:
Escherichia coli = assay: Antimicrobial activity against Escherichia coli ATCC35218 assessed as inhibition of microbial growth at 50 uM incubated for 24 hrs by microbroth dilution assay; assay type: functional, organism-based
MCF7 = assay: Cytotoxicity against human MCF7 cells assessed as cell growth inhibition at 50 uM incubated for 48 hrs by CCK-8 assay; assay type: functional, cell-based
HepG2 = assay: Cytotoxicity against human HepG2 cells assessed as cell growth inhibition at 50 uM incubated for 48 hrs by CCK-8 assay; assay type: functional, cell-based
A549 = assay: Cytotoxicity against human A549 cells assessed as cell growth inhibition at 50 uM incubated for 48 hrs by CCK-8 assay; assay type: functional, cell-based
HeLa = assay: Cytotoxicity against human HeLa cells assessed as cell growth inhibition at 50 uM incubated for 48 hrs by CCK-8 assay; assay type: functional, cell-based
Staphylococcus aureus = assay: Antimicrobial activity against Staphylococcus aureus ATCC25923 assessed as inhibition of microbial growth at 50 uM incubated for 24 hrs by microbroth dilution assay; assay type: functional, organism-based
HT-29 = assay: Cytotoxicity against human HT-29 cells assessed as cell growth inhibition at 50 uM incubated for 48 hrs by CCK-8 assay; assay type: functional, cell-based
[1] = Selectivity index, ratio of CC50 for cytotoxicity against male BALB/c mouse Splenocyte cells to IC50 for immunosuppressive activity in male BALB/c mouse splenocyte assessed as reduction in ConA-induced T-cell proliferation; assay type: toxicity, cell-based; conditions: splenocytes, read-out: Ratio CC50/IC50
Splenocyte [2] = assay: Immunosuppressive activity in male BALB/c mouse splenocyte assessed as reduction in LPS-induced B-cell proliferation incubated for 48 hrs by CCK-8 assay; assay type: functional, cell-based
[3] = Cytotoxicity against male BALB/c mouse Splenocyte cells incubated for 48 hrs by CCK-8 assay; assay type: toxicity, cell-based; conditions: splenocytes
[4] = Selectivity index, ratio of CC50 for cytotoxicity against male BALB/c mouse Splenocyte cells to IC50 for immunosuppressive activity in male BALB/c mouse splenocyte assessed as reduction in LPS-induced B-cell proliferation; assay type: toxicity, cell-based; conditions: splenocytes, read-out: Ratio CC50/IC50
Splenocyte [5] = assay: Immunosuppressive activity in male BALB/c mouse splenocyte assessed as reduction in ConA-induced T-cell proliferation incubated for 48 hrs by CCK-8 assay; assay type: functional, cell-based

Compound: C=C(C)[C@H]1CC[C@]2(C)[C@@]34CC(=O)[C@@H](C)[C@@H](C[C@]3(C)C(=O)C[C@@]12O)O4
- Activity (Escherichia coli): inactive
- Activity (MCF7): inactive
- Activity (HepG2): inactive
- Activity (A549): inactive
- Activity (HeLa): inactive
- Activity (Staphylococcus aureus): inactive
- Activity (HT-29): inactive

Compound: C=C(C)[C@H]1[C@H](O)C[C@]2(C)[C@@]34CC(=O)[C@@H](C)[C@@H](C[C@]3(C)C(=O)C[C@@]12O)O4
- Activity (Escherichia coli): inactive
- Activity (MCF7): inactive
- Activity (HepG2): inactive
- Activity (A549): inactive
- Activity (HeLa): inactive
- Activity (Staphylococcus aureus): inactive
- Activity (HT-29): inactive

Compound: C=C(CO)[C@H]1CC[C@@]2(C)C1=CC(=O)[C@@]1(C)C[C@H]3O[C@@]21CC(=O)[C@H]3C
- Activity (Escherichia coli): inactive
- Activity (MCF7): inactive
- Activity (HepG2): inactive
- Activity (A549): inactive
- selectivity ratio [1]: > 2.5
- Activity (HeLa): inactive
- IC50 (Splenocyte [2]): 7.9 µM
- CC50 at 48 h [3]: > 50 µM
- selectivity ratio [4]: > 6.3
- Activity (Staphylococcus aureus): inactive
- Activity (HT-29): inactive
- IC50 (Splenocyte [5]): 20 µM

Compound: C=C(CO)[C@H]1CC[C@]2(C)[C@@]34CC(=O)[C@@H](C)[C@@H](C[C@]3(C)C(=O)C[C@@]12O)O4
- Activity (Escherichia coli): inactive
- Activity (MCF7): inactive
- Activity (HepG2): inactive
- Activity (A549): inactive
- selectivity ratio [1]: > 2.6
- Activity (HeLa): inactive
- IC50 (Splenocyte [2]): 3 µM
- CC50 at 48 h [3]: > 50 µM
- selectivity ratio [4]: > 17
- Activity (Staphylococcus aureus): inactive
- Activity (HT-29): inactive
- IC50 (Splenocyte [5]): 19 µM

Compound: C=C(C)[C@H]1CC[C@]2(C)[C@@]34C[C@@H](O)[C@@H](C)[C@@H](C[C@]3(C)C(=O)C[C@@]12O)O4
- Activity (Escherichia coli): inactive
- Activity (MCF7): inactive
- Activity (HepG2): inactive
- Activity (A549): inactive
- Activity (HeLa): inactive
- Activity (Staphylococcus aureus): inactive
- Activity (HT-29): inactive

Compound: C=C(C)[C@H]1CC[C@@]23CO[C@@]4(O)C(=O)C(C)=CC[C@](C)(C(=O)C[C@@]12O)[C@@]34O
- Activity (Escherichia coli): inactive
- Activity (MCF7): inactive
- Activity (HepG2): inactive
- Activity (A549): inactive
- Activity (HeLa): inactive
- Activity (Staphylococcus aureus): inactive
- Activity (HT-29): inactive

Compound: C=C(C)[C@H]1CC[C@@]23CO[C@@]4(O)C(=O)[C@@H](C)CC[C@](C)(C(=O)C[C@@]12O)[C@@]34O
- Activity (Escherichia coli): inactive
- Activity (MCF7): inactive
- Activity (HepG2): inactive
- Activity (A549): inactive
- Activity (HeLa): inactive
- Activity (Staphylococcus aureus): inactive
- Activity (HT-29): inactive

Compound: C=C(C)[C@H]1CC[C@]2(C)[C@@]3(O)CC(=O)C(C)=CC[C@]3(C)C(=O)C[C@@]12O
- Activity (Escherichia coli): inactive
- Activity (MCF7): inactive
- Activity (HepG2): inactive
- Activity (A549): inactive
- Activity (HeLa): inactive
- Activity (Staphylococcus aureus): inactive
- Activity (HT-29): inactive

Compound: C=C(C)[C@H]1CC[C@@]23CO[C@@](O)(C[C@@]12O)[C@@]1(C)C[C@H]2O[C@]13[C@@H](O)C(=O)[C@H]2C
- Activity (Escherichia coli): inactive
- Activity (MCF7): inactive
- Activity (HepG2): inactive
- Activity (A549): inactive
- Activity (HeLa): inactive
- Activity (Staphylococcus aureus): inactive
- Activity (HT-29): inactive

Compound: C=C(C)[C@H]1CC[C@@]23CO[C@@](O)(C[C@@]12O)[C@@]1(C)C[C@H]2O[C@]13C(=O)C(O)=C2C
- Activity (Escherichia coli): inactive
- Activity (MCF7): inactive
- Activity (HepG2): inactive
- Activity (A549): inactive
- Activity (HeLa): inactive
- Activity (Staphylococcus aureus): inactive
- Activity (HT-29): inactive

Compound: C=C(C)[C@H]1CC[C@]2(C)C3=CC(=O)C(C)=CC[C@]3(C)C(=O)C[C@@]12O
- Activity (Escherichia coli): inactive
- Activity (MCF7): inactive
- Activity (HepG2): inactive
- Activity (A549): inactive
- Activity (HeLa): inactive
- Activity (Staphylococcus aureus): inactive
- Activity (HT-29): inactive
